Laboratory results reported in patent US8101576B2, “Compounds and their effects on feeding behaviour” (priority 2006, dated 2012).
Square brackets hold non-standard residues; d marks the D form. Ends that are not written are not given here. * marks the point of attachment. Arachidoyl = CCCCCCCCCCCCCCCCCCCC(=O)*; Palmitoyl = CCCCCCCCCCCCCCCC(=O)*; Myristoyl = CCCCCCCCCCCCCC(=O)*

How the values were obtained:
[1] = Inhibition of food intake, subcutaneous injection to fasted mice; type: in vivo, C57BL/6 mice; details: 20 nmoles/kg
Method: Animals: All animal procedures were approved by the British Home Office Animals (Scientific Procedures) Act 1986 (Project License number 70/5516). Male C57BL/6 mice and male Wistar rats were maintained in individual cages under controlled temperature (21-23° C.) with ad libitum access to standard chow (RMI diet, SDS Ltd, Witham, Essex, UK) and to water. The light cycle was 12 hours light and 12 hours dark with ‘dawn’ at 07:00, lights full on at 07:30, ‘dusk’ at 19:00 with lights off at 19:30. These times were fixed in the animal facility, All animals were handled almost daily for on average nine days prior to the first study. During the acclimatization period, mice received two saline injections at least two days apart in order to further acclimatize to the procedure on the study days. It was found in rats that minimising the number of injections provided an optimal response, and so acclimatization injections were not used.
Study protocol: C57BL/6 mice (20-35 g) were injected with the peptide under investigation following a 20-hour fast. Wistar rats were injected following a 24-hour fast. Typically 6 to 10 rodents were used per experimental group. Injections were typically administered at 9:00. A pre-weighed quantity of chow was presented immediately after injection. The remaining food was measured at regular time intervals (e.g. 1, 2, 3, 4, 6, 8, 24, 32 and 48 hours following injection) and food intake calculated.
The feeding effect of the following analogue of oxyntomodulin was investigated: PEPTIDE NO: 355 [SEQ ID NO:355]. The analogue was administered at a dose of […] by subcutaneous injection to a group of fasted mice. A further group was administered saline (control). Mean cumulative food intake over the course of 4 hours is shown in comparison to saline in FIG. 40. […] The food intake suppression continues for the whole 4 hour period; that is to say that the food intake over the 4 hour period is lower than in the saline control.
The feeding effect of the following analogue of oxyntomodulin was investigated: PEPTIDE NO: 130 [SEQ ID NO: 130]. […]

[2] = Inhibition of food intake, intraperitoneal injection to fasted mice; type: in vivo, C57BL/6 mice
Method: Animals: All animal procedures were approved by the British Home Office Animals (Scientific Procedures) Act 1986 (Project License number 70/5516).
Study protocol: C57BL/6 mice (20-35 g) were injected with the peptide under investigation following a 20-hour fast. Wistar rats were injected following a 24-hour fast. […] A pre-weighed quantity of chow was presented immediately after injection.

## D-His Ala Gln Gly Thr Phe Thr Ser Asp Tyr Ser Lys Tyr Leu Glu Gln Glu Leu Val Lys Tyr Phe Ile Gln Trp Leu Lys Asn Ala Gly Pro Ser Lys Asn Asn Ile Ala ([dH]AQGTFTSDYSKYLEQELVKYFIQWLKNAGPSKNNIA) [PEPTIDE NO: 130]
[1]; 24 hours observed
  food intake suppression continues for: ≥ 24 h
[1]; over 24 hours
  Mean cumulative food intake in comparison to saline control: potent and long acting suppression of food intake
  food intake in comparison to control group treated with native oxyntomodulin: lower than in the control group treated with native oxyntomodulin

## D-His Ser Gln Gly Thr Phe Thr Ser Asp Tyr Ser Lys Tyr Leu Asp Ser Arg Arg Ala Gln Asp Phe Val Gln Trp Leu Lys Asn Ala Gly Pro Ser Lys Asn Asn Ile Ala ([dH]SQGTFTSDYSKYLDSRRAQDFVQWLKNAGPSKNNIA) [PEPTIDE NO: 195]
[2]; 800 nmoles/kg, over 24 hours
  Mean cumulative food intake in comparison to saline control: potent and long acting suppression of food intake
  food intake in comparison to control group treated with native oxyntomodulin: lower than in the control group treated with native oxyntomodulin

## D-His Ser Gln Gly Thr Phe Thr Ser Asp Tyr Ser Lys Tyr Leu Glu Glu Glu Leu Val Lys Tyr Phe Leu Gln Trp Leu Lys Asn Ala Gly Pro Ser Lys Asn Asn Ile Ala Glu Ala Lys ([dH]SQGTFTSDYSKYLEEELVKYFLQWLKNAGPSKNNIAEAK) [PEPTIDE NO: 210]
[2]; 20 nmoles/kg, over 48 hours
  Mean cumulative food intake in comparison to saline control: potent and long acting suppression of food intake
  food intake in comparison to control group treated with native oxyntomodulin: lower than in the control group treated with native oxyntomodulin

## D-His Ser Gln Gly Thr Phe Thr Ser Asp Tyr Ser Lys Tyr Leu Glu Glu Glu Leu Val Lys Tyr Phe Leu Gln Trp Leu Lys Asn Ala Gly Pro Ser Lys Asn Asn Ile Ala Glu Ala Lys-arachidoyl ([dH]SQGTFTSDYSKYLEEELVKYFLQWLKNAGPSKNNIAEAK(Arachidoyl)) [PEPTIDE NO: 214]
[2]; 400 nmoles/kg, over 48 hours
  Mean cumulative food intake in comparison to saline control: potent and long acting suppression of food intake
  food intake in comparison to control group treated with native oxyntomodulin: lower than in the control group treated with native oxyntomodulin

## D-His Ser Gln Gly Thr Phe Thr Ser Asp Tyr Ser Lys Tyr Leu Glu Glu Glu Leu Val Lys Tyr Phe Leu Gln Trp Leu Lys Asn Ala Gly Pro Ser Lys Asn Asn Ile Ala Glu Ala Lys-myristoyl ([dH]SQGTFTSDYSKYLEEELVKYFLQWLKNAGPSKNNIAEAK(Myristoyl)) [PEPTIDE NO: 211]
[2]; 200 nmoles/kg, over 48 hours
  Mean cumulative food intake in comparison to saline control: potent and long acting suppression of food intake
  food intake in comparison to control group treated with native oxyntomodulin: lower than in the control group treated with native oxyntomodulin

## D-His Ser Gln Gly Thr Phe Thr Ser Asp Tyr Ser Lys Tyr Leu Glu Glu Glu Leu Val Lys Tyr Phe Leu Gln Trp Leu Lys Asn Ala Gly Pro Ser Lys Asn Asn Ile Ala Glu Ala Lys-palmitoyl ([dH]SQGTFTSDYSKYLEEELVKYFLQWLKNAGPSKNNIAEAK(Palmitoyl)) [PEPTIDE NO: 213]
[2]; 400 nmoles/kg, over 48 hours
  Mean cumulative food intake in comparison to saline control: potent and long acting suppression of food intake
  food intake in comparison to control group treated with native oxyntomodulin: lower than in the control group treated with native oxyntomodulin

## HSQGTFTSDYSKYLEEELVKYFLQWLKNAGPSKNNIA [PEPTIDE NO: 4]
[2]; 5 nmoles/kg, over 24 hours
  Mean cumulative food intake in comparison to saline control: potent and long acting suppression of food intake
  food intake in comparison to control group treated with native oxyntomodulin: lower than in the control group treated with native oxyntomodulin
